Measurements taken from US20260070924A1, “INDAZOLE MACROCYCLES AND THEIR USE” (BLOSSOMHILL THERAPEUTICS, INC., priority 2022, published 2026).

Assays:
[1] = biological target: FLT3 (K663Q) (Homo sapiens (Human), UniProt P36888, K663Q); experiment: KINOMEscan binding assay (Eurofins DiscoveRx)
Experimental: (§1) For most kinases, kinase-tagged T7 phage strains were prepared in an E. coli host derived from the BL21 strain. E. coli were grown to log-phase and infected with T7 phage and incubated with shaking at 32° C. until lysis. The lysates were centrifuged and filtered to remove cell debris. The remaining kinases were produced in HEK-293 cells and subsequently tagged with DNA for qPCR detection. Streptavidin-coated magnetic beads were treated with biotinylated small molecule ligands for 30 minutes at room temperature to generate affinity resins for kinase assays. The liganded beads were blocked with excess biotin and washed with blocking buffer (SeaBlock (Pierce), 1% BSA, 0.05% Tween 20, 1 mM DTT) to remove unbound ligand and to reduce non-specific binding. […] Test compounds were prepared as 111× stocks in 100% DMSO. Kds were determined using an 11-point 3-fold compound dilution series with three DMSO control points. […] The compounds were then diluted directly into the assays such that the final concentration of DMSO was 0.9%. All reactions performed in polypropylene 384-well plate. Each was a final volume of 0.02 ml. […] The kinase concentration in the eluates was measured by qPCR. Binding constants (Kds) were calculated with a standard dose-response curve using a non-linear least square fit with the Levenberg-Marquardt algorithm.

[2] = biological target: FLT3 (Homo sapiens (Human), UniProt P36888); experiment: KINOMEscan binding assay (Eurofins DiscoveRx)
Experimental: as §1

[3] = biological target: FLT3 (D835H) (Homo sapiens (Human), UniProt P36888, D835H); experiment: KINOMEscan binding assay (Eurofins DiscoveRx)
Experimental: as §1

[4] = biological target: FLT3 (ITD); experiment: KINOMEscan binding assay (Eurofins DiscoveRx)
Experimental: as §1

[5] = biological target: FLT3 (N841I) (Homo sapiens (Human), UniProt P36888, N841I); experiment: KINOMEscan binding assay (Eurofins DiscoveRx)
Experimental: as §1

[6] = biological target: FLT3 (R834Q) (Homo sapiens (Human), UniProt P36888, R834Q); experiment: KINOMEscan binding assay (Eurofins DiscoveRx)
Experimental: as §1

[7] = biological target: FLT3-autoinhibited (Homo sapiens (Human), UniProt P36888); experiment: KINOMEscan binding assay (Eurofins DiscoveRx)
Experimental: as §1

[8] = biological target: FLT3 (ITD, F691L); experiment: KINOMEscan binding assay (Eurofins DiscoveRx)
Experimental: as §1

[9] = biological target: FLT3 (D835Y) (Homo sapiens (Human), UniProt P36888, D835Y); experiment: KINOMEscan binding assay (Eurofins DiscoveRx)
Experimental: as §1

[10] = biological target: FLT3 (ITD, D835V); experiment: KINOMEscan binding assay (Eurofins DiscoveRx)
Experimental: as §1

[11] = biological target: FLT3 (D835V) (Homo sapiens (Human), UniProt P36888, D835V); experiment: KINOMEscan binding assay (Eurofins DiscoveRx)
Experimental: as §1

[12] = system: S6K (PRS6KB1) exon6-8/exon 6-7; experiment: Alternative splicing ratio by qPCR in MOLM-13; assay type: cell-based; details: DMSO = 1.02
Experimental: Alternative splicing ratio of RNA transcripts was measured by qPCR in MV-4-11 and MOLM-13 cell lines. Cells were plated in 24 well plates at 1 million cells per well and then treated with compounds at different concentrations, with DMSO only as control. After 8-hour-incubation, cells were harvested and washed once with ice-cold PBS, and lysed in RNA lysis buffer (Invitrogen). Total RNA was extracted using the RNA Purification Kit (Invitrogen). 2 μg of RNA was used for cDNA synthesis using cDNA synthesis kit (ThermoFisher) and 20 ng of cDNA was used for qPCR using PROFLEX 96-Well PCR System (ThermoFisher).

[13] = biological target: FLT3-ITD (Homo sapiens, UniProt P36888); experiment: HotSpot radiometric kinase assay (Reaction Biology); assay type: biochemical
[14] = system: Phospho-p44/42 MAPK (Erk1/2) (T202/Y204); experiment: Inhibition of kinase phosphorylation by Western Blot in MOLM-13; assay type: cell-based; details: MOLM-13 cells, 4 hour-incubation; read-out: pERK MOLM-13 IC50
Experimental: (§2) Inhibition of kinase phosphorylation assay was performed by Western Blot using MV-4-11 and MOLM13 cell lines. Cells were plated in 24 well plates at 1 million cells per well and then treated with compounds at different concentrations, starting at 100 nM, 1:4 titration with DMSO as control. After 4 hour-incubation, cells were washed once with ice-cold PBS, and lysed in RIPA lysis buffer with protease and phosphatase inhibitors. The cell lysates were then sonicated and spun down, and 40 μg of proteins were separated by sodium dodecyl sulfate electrophoresis on a 4 to 12% Bis-Tris polyacrylamide gel and transferred onto nitrocellulose membranes using Bio-Rad Trans-Blot Turbo Transfer System (Bio-Rad). Blocking was performed using 3% BSA or 5% Non-fat dry milk (Fisher Scientific) in TBST (Tris-buffered saline containing 0.05% of Tween 20) (Bio-Rad Laboratories, Inc.). The membranes were incubated overnight with anti-phospho-FLT3 (Y589/Y591) (CST #60413), anti-phospho-STAT5 (Y694) (CST #4322), anti-Phospho-p44/42 MAPK (Erk1/2) (T202/Y204) (CST #9101), anti-Phospho-S6 Ribosomal Protein (S235/236) (CST #4858) and anti-β-Actin (CST #8457) each diluted 1000 times in 3% BSA in TBST. Membranes were washed with TBST and then incubated at room temperature for 1 hour with HRP-labeled anti-rabbit IgG polyclonal antibody (CST #7074) diluted 1000 times in 3% BSA. After TBST washing, blots were developed with a chemiluminescence system (SuperSignal West Femto Maximum Sensitivity Substrate, Pierce #34095). Luminescence was detected by LI-COR Odyssey M imaging system and luminescence intensity were quantified using Empiria Studio 2.2 software. Data was analyzed using GraphPad Prism 9 (GraphPad Software, San Diego, CA) to obtain IC50 values.

[15] = system: Phospho-S6 Ribosomal Protein (S235/236); experiment: as above; assay type: cell-based; details: MOLM-13 cells, 4 hour-incubation; read-out: pS6 MOLM-13 IC50
Experimental: as §2

Kd [1]: 16 nM | Kd [2]: 0.18 nM | Kd [3]: 67 nM | Kd [4]: 6.3 nM | Kd [5]: 2.2 nM | Kd [6]: 0.89 nM | Kd [7]: 9.1 nM | Kd [8]: 0.23 nM | Kd [9]: 4.1 nM | Kd [10]: 0.058 nM | Kd [11]: 0.062 nM | IC50 [13]: 0.348 nM | IC50 [14]: 4.11 nM | IC50 [15]: 2.47 nM
SMILES: CCc1nn(C)c2c1/C=C/c1n[nH]c3ccc(cc13)-c1cnn(C)c1OCCN(C)C2=O [Ex. 6, (17E)-16-ethyl-8,12,14-trimethyl-2,11,12,14-tetrahydro-8H-3,5-ethenotripyrazolo[3,4-f:3′,4′-j:4″,3″-n][1,4]oxazacyclopentadecin-13(10H)-one]
Alternative Splicing Ratio S6K Ex. 6-8/Ex. 6-7 ([12]; MOLM-13, 30 nM): 1.60 | Alternative Splicing Ratio S6K Ex. 6-8/Ex. 6-7 ([12]; MOLM-13, 100 nM): 2.71 | Alternative Splicing Ratio S6K Ex. 6-8/Ex. 6-7 ([12]; MOLM-13, 300 nM): 8.08
